Experimental data as given in article PMC5823845 (Bioorganic & Medicinal Chemistry, 2018).

What was measured:
[1] = Log D pH 7.4, octanol/buffer shake flask method
Protocol: Briefly, octanol (pre-saturated with buffer) is added to the test compound and sonicated. Buffer at pH 7.4 (presaturated with octanol) is then added to the octanol. […] The system is mixed to allow distribution of the compound between the two phases.
Log D = Log (Coct / Caq ). Where: Coct = Concentration in octanol sample (corrected for dilution) and Caq = Concentration in aqueous sample (corrected for dilution)

[2] = Beagle dogs, n = 3
Protocol: intravenous (bolus) injection at a dose level of 0.2 mg/kg. […] Intravenous doses were administered by bolus injection into a cephalic vein at a dose volume of 1 mL/kg. Oral doses were administered by gastric intubation at a dose volume of 5 mL/kg. […] Pharmacokinetic parameters were calculated using the computer program Phoenix WinNonlin version 6.3 (Pharsight Corporation, USA).

[3] = Stability and intrinsic clearance in cryopreserved hepatocytes; conditions: cynomolgus monkey
Protocol: (§2) Reactions were terminated by addition of 100 μL of acetonitrile containing carbamazepine as the analytical internal standard. Samples were centrifuged and the supernatant fractions analysed by LC-MS/MS. The instrument responses (peak heights) were referenced to the zero time-point samples (as 100%) in order to determine the percentage of compound remaining. Ln plots of the % remaining, for each compound, were used to determine the half-life for the hepatocyte incubations.

Cyp 450 2C9 = biological target: T1, Cyp 450 2C9 (Homo sapiens, UniProt P11712); assay: Cytochrome P450 inhibition in human liver microsomes; assay type: in vitro ADME; conditions: human liver microsomes
T1 construct: tissue Cyprotex (CRO); host or cells: human liver microsomes
T1 sequence (P11712 whole entry): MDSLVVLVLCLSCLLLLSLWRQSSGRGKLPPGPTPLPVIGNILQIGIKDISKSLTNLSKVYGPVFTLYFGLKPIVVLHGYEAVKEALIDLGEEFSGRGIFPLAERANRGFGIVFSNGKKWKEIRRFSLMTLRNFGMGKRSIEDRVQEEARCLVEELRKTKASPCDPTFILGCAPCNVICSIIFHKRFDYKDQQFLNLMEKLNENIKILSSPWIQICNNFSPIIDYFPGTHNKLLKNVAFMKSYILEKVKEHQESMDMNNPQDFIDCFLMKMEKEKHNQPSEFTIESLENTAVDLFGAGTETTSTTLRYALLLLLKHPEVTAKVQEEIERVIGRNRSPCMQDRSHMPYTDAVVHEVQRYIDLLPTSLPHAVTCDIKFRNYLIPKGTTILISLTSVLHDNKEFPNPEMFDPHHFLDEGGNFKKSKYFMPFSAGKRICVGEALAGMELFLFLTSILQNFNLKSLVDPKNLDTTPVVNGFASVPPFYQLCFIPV
Protocol: (§1) The five main cytochrome P450 isoforms (CYP1A, CYP2C9, CYP2C19, CYP2D6 and CYP3A4) were investigated in the P450 inhibition assay. […] At the end of the incubation, the formation of the metabolite was monitored by LC-MS/MS (or fluorescence in the case of CYP1A) at each of the test compound concentrations.

Cyp 450 1A2 = biological target: T2, Cyp 450 1A2 (Homo sapiens, UniProt P05177); assay: as above; assay type: in vitro ADME; conditions: human liver microsomes
T2 construct: tissue Cyprotex (CRO); host or cells: human liver microsomes
T2 sequence (P05177 1-516): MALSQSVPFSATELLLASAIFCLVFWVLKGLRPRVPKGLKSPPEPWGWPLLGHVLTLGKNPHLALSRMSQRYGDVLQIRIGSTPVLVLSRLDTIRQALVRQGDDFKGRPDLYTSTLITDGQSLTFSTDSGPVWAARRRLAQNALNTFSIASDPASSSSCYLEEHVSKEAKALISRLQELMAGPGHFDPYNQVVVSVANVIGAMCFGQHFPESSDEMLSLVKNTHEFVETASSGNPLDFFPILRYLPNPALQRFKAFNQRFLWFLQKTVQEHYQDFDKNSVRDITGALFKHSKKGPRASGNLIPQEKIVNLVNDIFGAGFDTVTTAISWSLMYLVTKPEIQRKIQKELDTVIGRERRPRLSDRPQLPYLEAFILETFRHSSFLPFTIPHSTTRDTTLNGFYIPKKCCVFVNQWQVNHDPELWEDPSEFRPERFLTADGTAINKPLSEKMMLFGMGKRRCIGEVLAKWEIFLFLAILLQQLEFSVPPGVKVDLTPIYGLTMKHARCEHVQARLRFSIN
Protocol: as §1

Cyp 450 2C19 = biological target: T3, Cyp 450 2C19 (Homo sapiens, UniProt P33261); assay: as above; assay type: in vitro ADME; conditions: human liver microsomes
T3 construct: tissue Cyprotex (CRO); host or cells: human liver microsomes
T3 sequence (P33261 whole entry): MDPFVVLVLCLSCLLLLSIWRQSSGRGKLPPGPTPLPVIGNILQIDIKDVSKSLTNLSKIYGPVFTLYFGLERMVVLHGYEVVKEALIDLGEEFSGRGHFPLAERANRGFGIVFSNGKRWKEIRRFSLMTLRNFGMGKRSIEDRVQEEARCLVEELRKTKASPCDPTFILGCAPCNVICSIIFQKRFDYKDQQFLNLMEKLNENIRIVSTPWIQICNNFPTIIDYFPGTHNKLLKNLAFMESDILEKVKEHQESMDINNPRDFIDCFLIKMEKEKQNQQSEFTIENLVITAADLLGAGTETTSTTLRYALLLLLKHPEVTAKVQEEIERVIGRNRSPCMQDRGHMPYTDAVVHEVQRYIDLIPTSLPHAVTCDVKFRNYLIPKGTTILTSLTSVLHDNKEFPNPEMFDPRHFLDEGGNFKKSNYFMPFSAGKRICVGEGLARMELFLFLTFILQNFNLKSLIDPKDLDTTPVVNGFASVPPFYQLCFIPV
Protocol: as §1

Cyp 450 2D6 = biological target: T4, Cyp 450 2D6 (Homo sapiens, UniProt P10635); assay: as above; assay type: in vitro ADME; conditions: human liver microsomes
T4 construct: tissue Cyprotex (CRO); host or cells: human liver microsomes
T4 sequence (P10635 whole entry): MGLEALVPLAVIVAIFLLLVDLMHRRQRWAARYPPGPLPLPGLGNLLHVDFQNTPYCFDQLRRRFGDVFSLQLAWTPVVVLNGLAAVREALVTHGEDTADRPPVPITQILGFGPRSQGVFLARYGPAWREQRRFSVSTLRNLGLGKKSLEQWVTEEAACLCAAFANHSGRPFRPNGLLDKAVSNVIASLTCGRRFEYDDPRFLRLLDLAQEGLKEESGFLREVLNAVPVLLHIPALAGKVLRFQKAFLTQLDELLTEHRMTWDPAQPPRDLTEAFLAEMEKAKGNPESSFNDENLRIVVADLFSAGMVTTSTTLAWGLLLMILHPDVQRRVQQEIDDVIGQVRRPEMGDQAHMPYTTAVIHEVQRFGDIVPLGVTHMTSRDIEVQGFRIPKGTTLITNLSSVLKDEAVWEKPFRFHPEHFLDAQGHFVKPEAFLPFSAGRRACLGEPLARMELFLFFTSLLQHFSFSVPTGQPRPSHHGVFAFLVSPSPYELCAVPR
Protocol: as §1

Cyp 450 3A4 = biological target: T5, Cyp 450 3A4 (Homo sapiens, UniProt P08684); assay: as above; assay type: in vitro ADME; conditions: human liver microsomes
T5 construct: tissue Cyprotex (CRO); host or cells: human liver microsomes
T5 sequence (P08684 whole entry): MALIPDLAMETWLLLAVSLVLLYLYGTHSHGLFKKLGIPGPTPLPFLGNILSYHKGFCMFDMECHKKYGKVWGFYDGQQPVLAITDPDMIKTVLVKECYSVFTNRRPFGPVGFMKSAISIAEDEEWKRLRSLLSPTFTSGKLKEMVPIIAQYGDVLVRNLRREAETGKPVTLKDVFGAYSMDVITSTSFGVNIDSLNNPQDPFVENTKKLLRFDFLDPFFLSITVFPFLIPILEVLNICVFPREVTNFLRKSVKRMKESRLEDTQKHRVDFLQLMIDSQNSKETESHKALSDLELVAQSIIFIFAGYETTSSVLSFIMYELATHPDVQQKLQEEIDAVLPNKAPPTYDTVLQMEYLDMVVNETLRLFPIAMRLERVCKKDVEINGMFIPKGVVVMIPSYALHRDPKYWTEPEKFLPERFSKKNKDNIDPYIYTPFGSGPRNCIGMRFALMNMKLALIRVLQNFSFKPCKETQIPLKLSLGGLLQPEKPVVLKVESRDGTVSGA
Protocol: as §1

in vivo = conditions: C57, mouse, iv, 1 mg/kg
Protocol: Blood was centrifuged to yield plasma for quantification of parent compound using UPLC-MS/MS. […] Terminal blood samples (approximately 300 μL) were subsequently taken by cardiac puncture under CO2 terminal anaesthesia. Once collected, blood samples were transferred to tubes containing 28 μL of citrate as anti-coagulant and held on ice, for <30 minutes, before centrifugation to generate plasma. Plasma samples aliquots (50 μL) were treated with four volumes of acetonitrile, containing diclofenac as analytical internal standard. Precipitated proteins were removed by centrifugation and the supernatant was analysed by UPLC-MS/MS. Pharmacokinetic parameters were determined by non-compartmental analysis using the software package PK Solutions 2.0 from Summit Research Services.

[4] = system: Salmonella Typhimurium (TA98, TA100, and TA1535); assay: Ames test; assay type: cell-based; conditions: three bacterial strains; presence and absence of S9
Text: For the first two assays, photometry is used for detection.

[5] = system: Salmonella Typhimurium (TA98, TA100, and TA1535); assay: Bacterial cytotoxicity; assay type: cell-based; conditions: up to 100 μM; presence and absence of S9
Text: The results for cytotoxicity are expressed as percent of control growth (OD650). A compound with growth less than 60% of control is flagged and considered to be cytotoxic.

5HT2B site = biological target: T6, 5HT2B site (Homo sapiens, UniProt P41595); assay: CEREP selectivity screen, binding assay; conditions: read-out: highest inhibition, 5HT2B site
T6 construct: Cerep (CRO)
T6 sequence (P41595 whole entry): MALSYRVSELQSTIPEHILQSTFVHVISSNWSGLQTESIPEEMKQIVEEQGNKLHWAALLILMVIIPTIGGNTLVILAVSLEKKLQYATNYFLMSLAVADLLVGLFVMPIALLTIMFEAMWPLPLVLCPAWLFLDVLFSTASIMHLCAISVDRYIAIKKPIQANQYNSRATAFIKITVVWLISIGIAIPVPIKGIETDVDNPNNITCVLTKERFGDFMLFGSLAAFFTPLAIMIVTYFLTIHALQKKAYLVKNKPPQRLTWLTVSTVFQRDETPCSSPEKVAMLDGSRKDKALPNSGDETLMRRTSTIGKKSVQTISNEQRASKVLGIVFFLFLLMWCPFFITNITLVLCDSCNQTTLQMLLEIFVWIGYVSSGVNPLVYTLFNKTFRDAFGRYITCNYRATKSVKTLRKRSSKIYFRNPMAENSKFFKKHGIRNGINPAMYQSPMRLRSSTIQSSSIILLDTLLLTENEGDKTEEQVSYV
Protocol: The CEREP selectivity screen was performed on the following targets:
A1, A2A, A3, α1, α2, β1, β2, AT1, AT2, BZD central, BZD periph, BB, B2, CGRP, CB1, CCK1, CCK2, D1, D2S, D3, D4.4, D5, ETA, ETB, GABA, GAL1, GAL2, PDGF, CXCR2, CCR1, TNF- α, H1, H2, MC4, MT1, M1, M2, M3, M4, M5, NK1, NK2, NK3,Y1, Y2, NTS1(NT1), δ2, κ, µ, NOP(ORL1) , PAC1(PACAP), PPARγ, PCP, EP2, EP4, IP(PGI2,), P2X, P2Y,5-HT1A, 5-HT1B, 5-HT2A, 5-HT2B, 5-HT2C, 5-HT3, 5-HT5A, 5-HT6, 5-HT7, σ, sst, GR, ER, VPAC1(VIP1), V1a, Ca^2+ channel (L), KV channel, KV channel, SKCa channel, Na^+ channel, Cl^- channel, norepinephrine transporter. dopamine transporter, 5-HT transporter.

[6] = Stability and intrinsic clearance in cryopreserved hepatocytes; conditions: dog
Protocol: as §2

[7] = as above; conditions: human
Protocol: as §2

CCOc1c(Cl)cc(C(=O)Nc2ccc(C(=O)O)c(C)c2)cc1OC(C)C [Compound 56, 4-(3-Chloro-4-ethoxy-5-isopropoxybenzamido)-2-methylbenzoic acid]
logD [1]: 1.8
po F ([2]; 0.5 mg/kg iv, 1 mg/kg po): 83%
iv t1/2 ([2]; 0.5 mg/kg iv): 9.2 h
po Cmax ([2]; 1 mg/kg po): 2050 ng/mL
po Tmax ([2]; 1 mg/kg po): 30 min
half-life at 1 μM [3]: > 450 min
half-life at 30 μM [3]: > 450 min
hepatocyte CLint at 1 μM [3]: < 3 µL/min/1e6 cells
hepatocyte CLint at 30 μM [3]: < 3 µL/min/1e6 cells
IC50 (Cyp 450 2C9): > 25 µM
IC50 (Cyp 450 1A2): > 25 µM
IC50 (Cyp 450 2C19): > 25 µM
IC50 (Cyp 450 2D6): > 25 µM
IC50 (Cyp 450 3A4): > 25 µM
Vd (in vivo): 0.3 L/kg
clearance (in vivo): 4.7 mL/min/kg
Ames test [4]: negative
bacterial cytotoxicity tests [5]: negative
inhibition at 10 µM (5HT2B site): 25%
half-life at 1 μM [6]: > 450 min
half-life at 30 μM [6]: > 450 min
hepatocyte CLint at 1 μM [6]: < 3 µL/min/1e6 cells
hepatocyte CLint at 30 μM [6]: < 3 µL/min/1e6 cells
half-life at 1 μM [7]: > 450 min
half-life at 30 μM [7]: > 450 min
hepatocyte CLint at 1 μM [7]: < 3 µL/min/1e6 cells
hepatocyte CLint at 30 μM [7]: < 3 µL/min/1e6 cells
